Source: patent US20230406849A1, “KRAS INHIBITORS FOR TREATMENT OF CANCERS” (TYLIGAND BIOSCIENCE (SHANGHAI) LIMITED, priority 2020, published 2023)

Tests used:
[1] = test system: human pancreatic cancer Mia PaCa-2 cells xenograft; experiment: Subcutaneous xenograft tumor model of Mia PaCa-2 cells in BALB/c nude mouse; assay type: in vivo; conditions: Mia PaCa-2 xenograft, BALB/c nude mice, gavage once a day; for TGI(%): Day 21
Procedure: The in vivo efficacy of the representative compounds of the present disclosure in the subcutaneous xenograft tumor model of human pancreatic cancer Mia PaCa-2 cells was evaluated.
[Test materials]: BALB/c nude mice of 6-8 weeks, female, Zhejiang Vital River Laboratory Animal Technology Co., Ltd. Human pancreatic cancer Mia PaCa-2 cells (ATCC, Cat #: CRL-1420). Matrigel (Matrigel, Corning, Cat. No. 356234).
[Experimental procedure]: 0.2 mL (5×10^6) Mia PaCa-2 cells (plus Matrigel, volume ratio 1:1) were inoculated subcutaneously on the right back dorsal of each mouse. […] During the assay, tumor volumes and body weights were measured twice a week.
The tumor volume was calculated according to the following formula: V=0.5a×b^2, where a and b represent the long and short diameters of the tumor, respectively.

[2] = Pharmacokinetics in rats, IV and oral; assay type: in vivo, SD rats; conditions: rat
Procedure: 2.2 Pharmacokinetic Properties of Representative Examples of the Present Disclosure
[Test materials] Same as above 2.1.
[Experimental procedure]: IV injection administration was performed on rats according to the similar procedure described in 2.1 above, with a drug concentration of 3 mg/mL, and the drug preparation, administration and sample collection were performed by reference to 2.1 above. For the oral administration group, the drug was formulated to a 3 mg/mL suspension in 0.5% methylcellulose MC-400cp (Aladdin, M112866), and gavage administered in 10 mL/kg. Blood samples were collected at the time points of 0.25, 0.5, 1, 2, 4, 6, 8 and 24 hours after administration via external jugular vein puncture, centrifuged at low temperature for 20 minutes, and the plasma samples were collected and stored at −80° C. until analysis.
The subsequent sample analysis and data processing are similar to those described in 2.1.

Row | AUC(0-inf) ([2]; male, SD, plasma, IV, 3 mg/kg) [ng·h/mL] | AUC(0-t) ([2]; male, SD, plasma, IV, 3 mg/kg) [ng·h/mL] | Vd ([2]; male, SD, plasma, IV, 3 mg/kg) [L/kg] | clearance ([2]; male, SD, plasma, IV, 3 mg/kg) [mL/min/kg] | half-life ([2]; male, SD, plasma, IV, 3 mg/kg) [h] | AUC(0-inf) ([2]; male, SD, plasma, PO, 30 mg/kg) [ng·h/mL] | AUC(0-t) ([2]; male, SD, plasma, PO, 30 mg/kg) [ng·h/mL] | Cmax ([2]; male, SD, plasma, PO, 30 mg/kg) [ng/mL] | Tmax ([2]; male, SD, plasma, PO, 30 mg/kg) [h] | F ([2]; PO 30 mg/kg vs IV 3 mg/kg) [%] | SMILES | Tumor volume (mm^3) (Day 21) ([1]; 10 mpk) | TGI(%) ([1]; 10 mpk) | Tumor volume (mm^3) (Day 21) ([1]; 3 mpk) | TGI(%) ([1]; 3 mpk) | Tumor volume (mm^3) (Day 21) ([1]; 30 mpk) | TGI(%) ([1]; 30 mpk)
1 |  |  |  |  |  |  |  |  |  |  | C=CC(=O)N1CCN(c2nc(=O)n(-c3c(C)ccnc3C(C)C)c3nc(-c4c(O)cccc4F)c(F)cc23)[C@@H](C)C1 (atropisomer, axis not shown) [AMG510, reference compound] | 432 | 72.3 |  |  |  | 
2 | 3310 | 3310 | 0.63 | 15.6 | 0.67 | 7870 | 7780 | 2390 | 1.33 | 23.8 | C=CC(=O)N1CCN(c2c(C#N)cnc3c(F)c(-c4ccc(F)c5sc(N)nc45)c(Cl)cc23)CC1 [Example 9, 4-(4-Acryloylpiperazin-1-yl)-7-(2-amino-7-fluorobenzo[d]thiazol-4-yl)-6-chloro-8-fluoroquinoline-3-carbonitrile] | 246 | 89.8 | 665 | 50.4 | 162 | 97.7
